The structures appear in SMILES notation. Like-named read-outs stand apart in the source and are kept apart here.

Data set [1] has as its target T1, urease (Canavalia ensiformis, UniProt P07374). Nature of the data set: biochemical. The protocol:
The indophenol method was adopted for the estimation of urease inhibition activity for synthesized compounds with minor modification. In the assay, the total volume was kept at 100 µL which was composed of 10 µL urease having a concentration of 5 U/mL, 40 µL of phosphate buffer (0.01mM K2HPO4+ EDTA + […]); pH was adjusted to 8.15 using 40 µL of phenol reagent (1%, phenol, and sodium nitroprusside) and alkali reagent. This alkali reagent was composed of 0.5% of sodium hydroxide and 0.1% of active chloride (NaOCl). For the determination of urease activity, the test compound and enzyme were incubated for 30 min at 37 °C in the assay buffer; then phenol/alkali reagent was added. All reactions were performed in 96 well plates in a triplicate manner. Absorbance was measured at a wavelength of 625 nm using the instrument FLUOstar® Omega (BMG LABTECH, Ortenberg, Germany). Initially, the percentage inhibition was estimated for the test compounds and compared with a standard inhibitor of urease (thioureas). […] GraphPad (PRISM 8.0, San Diego, CA, USA) was utilized for the calculations of IC50 values. The synthesized compounds were dissolved in absolute ethanol for the percentage inhibition assay whereas dilutions were prepared in deionized water by keeping the final concentration at up to 1%. The standard inhibitor (thioureas) was used as a positive control in the assay whereas 1% ethanol was employed as a negative control during the assay.

The target in data set [2] is T1, urease. The data set is described as follows: Enzyme kinetics study (Lineweaver–Burk plot) of urease inhibition. The data set is classed as biochemical. The conditions noted are these: compound 0.10-1.6 µM. The text has this:
By calculating the Lineweaver–Burk plot, the competitive mode of inhibition was shown by the compound Rx-6.

T1 sequence (P07374 whole entry, looked up): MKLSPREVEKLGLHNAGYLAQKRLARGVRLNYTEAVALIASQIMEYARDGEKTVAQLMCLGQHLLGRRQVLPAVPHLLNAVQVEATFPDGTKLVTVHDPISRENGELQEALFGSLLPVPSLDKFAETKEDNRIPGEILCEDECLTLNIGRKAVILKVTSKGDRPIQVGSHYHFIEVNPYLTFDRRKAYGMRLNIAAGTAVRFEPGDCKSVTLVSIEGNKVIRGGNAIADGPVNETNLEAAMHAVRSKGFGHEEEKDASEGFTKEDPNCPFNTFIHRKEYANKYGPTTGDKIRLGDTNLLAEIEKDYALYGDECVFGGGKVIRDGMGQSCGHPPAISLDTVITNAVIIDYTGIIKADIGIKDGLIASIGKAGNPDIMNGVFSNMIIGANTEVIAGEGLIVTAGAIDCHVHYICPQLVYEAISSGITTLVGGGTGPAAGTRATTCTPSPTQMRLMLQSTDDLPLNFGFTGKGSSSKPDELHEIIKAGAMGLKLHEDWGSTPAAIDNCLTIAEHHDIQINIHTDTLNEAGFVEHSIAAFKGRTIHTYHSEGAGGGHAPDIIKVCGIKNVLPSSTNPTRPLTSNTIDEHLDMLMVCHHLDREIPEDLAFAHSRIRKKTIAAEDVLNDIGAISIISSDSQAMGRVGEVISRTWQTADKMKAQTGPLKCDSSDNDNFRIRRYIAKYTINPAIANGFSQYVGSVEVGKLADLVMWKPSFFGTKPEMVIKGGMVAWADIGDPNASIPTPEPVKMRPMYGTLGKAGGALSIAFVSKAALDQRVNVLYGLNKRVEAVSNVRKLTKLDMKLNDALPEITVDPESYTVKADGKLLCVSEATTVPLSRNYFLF

The molecule `NC(=O)N/N=C/c1cccc(C(F)(F)F)n1` [Rx-11, 6-Trifluoromethyl pyridine-2-yl methylene hydrazine carboxamide] had a melting point of 233 to 235 °C. On urease [1], this molecule displayed an IC50 of 5.96 ± 0.005 µM.

The molecule `COc1cccc(/C=N/NC(N)=O)n1` [Rx-10, 6-Methoxypyridine-2-yl methylene hydrazine carboxamide] yielded a melting point of 193 °C. This molecule also gave an IC50 against urease [1] of 5.52 ± 0.072 µM.

The molecule `NC(=O)N/N=C/c1ccc(Cl)cn1` [Rx-12, 5-Chloropyridine-2yl-methylene hydrazine carboxamide] came in with a melting point of 221 to 223 °C. Moreover, at urease [1], the half-inhibitory concentration (IC50) came out at 4.07 ± 0.003 µM.

`NC(=S)N/N=C/c1cccc(Br)n1` [Rx-3, 6-Bromopyridine-2-yl methylene hydrazine-1-carbothioamide] displayed a melting point of 192 to 194 °C. Also, the concentration for half-maximal inhibition (IC50) against urease [1] amounted to 3.13 ± 0.034 µM.

As for `Cc1cccc(/C=N/NC(N)=O)n1` [Rx-8, 6-Methylpyridine-2-yl methylene hydrazinecarboxamide], the melting point was 218 to 219 °C. Moreover, inhibition at urease [1] was half-maximal at 3.41 ± 0.011 µM (IC50).

As to `Cc1cccc(/C=N/NC(N)=S)n1` [Rx-2, 6-Methylpyridine-2-yl methylene hydrazine-1-carbothioamide], on urease [1], half-maximal inhibition (IC50) required 6.41 ± 0.023 µM.

In turn, `NC(=S)N/N=C/c1cccc(C(F)(F)F)n1` [Rx-5, 6-Trifluoromethyl pyridine-2-yl methylene hydrazine-1-carbothioamide] yielded a half-inhibitory concentration (IC50) at urease [1] of 4.93 ± 0.012 µM.

Regarding `COc1cccc(/C=N/NC(N)=S)n1` [Rx-4, 6-Methoxypyridine-2-yl methylene thiosemicarbazide], it took 4.21 ± 0.022 µM to reach half-maximal inhibition against urease [1] (IC50).

Turning to `NC(=O)N/N=C/c1ccccn1` [Rx-7, 2-Pyridine-2-yl-methylene hydrazine carboxamide], at urease [1], half-maximal inhibition (IC50) required 2.18 ± 0.058 µM.

On to `NC(N)=S` [Thiourea, reference compound], for which the half-inhibitory concentration (IC50) at urease [1] (urease 5 U/mL, 30 min at 37 °C, pH 8.15, triplicate, read-out: IC50 ± SEM) turned out to be 18.93 ± 0.004 µM.

Turning to `N/C(S)=N/N=C/c1ccccn1` [Rx-1, Pyridine-2-yl-methylene thiosemicarbazide], at urease [1], the IC50 turned out to be 3.23 ± 0.015 µM.

For `NC(=O)N/N=C/c1cccc(Br)n1` [Rx-9, 6-Bromopyridine-2-yl methylene hydrazinecarboxamide], the melting point is 231 to 233 °C. The IC50 on urease [1] was 14.49 ± 0.067 µM.

Molecule `NC(=S)N/N=C/c1ccc(Cl)cn1` [Rx-6, 5-Chloropyridine-2-yl methylene hydrazinecarbothioamide] had a melting point of 244 to 246 °C. In addition, the IC50 against urease [1] was 1.07 ± 0.043 µM. Besides, the “mode of inhibition (Lineweaver–Burk plot)” value at urease [2] was “competitive”.
